{
  "source": "patent US20240239861A1",
  "about": "“GLUCAGON-RECEPTOR SELECTIVE POLYPEPTIDES AND METHODS OF USE THEREOF” (i2O Therapeutics, Inc., priority 2016, published 2024)",
  "key": {"[1]": {"test": "Clearance following intravenous infusion, acylated peptides (1-hour infusion, 0.033 mg/kg)", "details": "rat, in vivo, Table 8, male rats, unit inferred"}, "[2]": {"test": "Clearance at intravenous infusion rate of 10 mcg/kg/hr", "details": "for clearance: rat, in vivo, 10 mcg/kg/hr"}, "human GCGR": {"target": "human GCGR (Homo sapiens, UniProt P47871)", "sequence (P47871 26-477)": "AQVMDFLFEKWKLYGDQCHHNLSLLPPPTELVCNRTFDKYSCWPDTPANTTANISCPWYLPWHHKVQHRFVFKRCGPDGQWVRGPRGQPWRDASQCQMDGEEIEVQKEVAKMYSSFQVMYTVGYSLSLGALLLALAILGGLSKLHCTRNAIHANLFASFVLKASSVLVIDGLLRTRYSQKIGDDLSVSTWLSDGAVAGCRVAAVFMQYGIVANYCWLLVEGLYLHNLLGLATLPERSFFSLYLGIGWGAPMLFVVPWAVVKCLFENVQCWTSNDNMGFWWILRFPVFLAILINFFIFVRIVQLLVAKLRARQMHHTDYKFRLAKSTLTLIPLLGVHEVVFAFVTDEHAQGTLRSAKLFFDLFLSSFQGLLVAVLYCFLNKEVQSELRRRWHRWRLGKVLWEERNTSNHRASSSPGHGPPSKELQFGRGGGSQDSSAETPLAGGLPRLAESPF", "test": "Peptide-receptor mediated cAMP accumulation (LANCE Ultra cAMP) in CHO-K1 cells transfected with human GCGR", "assay_type": "cell-based"}, "[3]": {"test": "Stability in water or saline at 37° C. and room temperature, 30 days, LC/MS and HPLC purity", "assay_type": "physicochemical", "from_the_text": "Samples were withdrawn at a regular interval for 30 days and analyzed by LC/MS and HPLC for determination of purity and mass of the degradation product."}, "[4]": {"test": "Body weight change in diet-induced obese rats over 27 days, Compound A1 with or without exenatide", "assay_type": "in vivo, rat"}, "hGIPR": {"target": "T1, hGIPR (Homo sapiens, UniProt P48546)", "T1 sequence (P48546 22-466)": "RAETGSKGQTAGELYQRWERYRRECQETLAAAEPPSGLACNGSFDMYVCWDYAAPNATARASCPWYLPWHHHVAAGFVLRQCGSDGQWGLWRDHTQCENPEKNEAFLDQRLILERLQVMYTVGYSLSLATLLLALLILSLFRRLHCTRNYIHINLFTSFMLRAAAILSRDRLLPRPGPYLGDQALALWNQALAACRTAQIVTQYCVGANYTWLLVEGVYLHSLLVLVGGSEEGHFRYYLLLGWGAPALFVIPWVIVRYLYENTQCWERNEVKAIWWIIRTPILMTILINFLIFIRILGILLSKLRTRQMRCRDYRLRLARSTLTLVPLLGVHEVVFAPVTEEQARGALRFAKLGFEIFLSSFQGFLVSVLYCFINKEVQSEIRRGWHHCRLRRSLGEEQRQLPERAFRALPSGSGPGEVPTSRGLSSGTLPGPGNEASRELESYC", "test": "Human in vitro potency (pEC50) at hGIPR", "assay_type": "cell-based"}, "human GLP-1R": {"target": "human GLP-1R (Homo sapiens, UniProt P43220)", "sequence (P43220 24-463)": "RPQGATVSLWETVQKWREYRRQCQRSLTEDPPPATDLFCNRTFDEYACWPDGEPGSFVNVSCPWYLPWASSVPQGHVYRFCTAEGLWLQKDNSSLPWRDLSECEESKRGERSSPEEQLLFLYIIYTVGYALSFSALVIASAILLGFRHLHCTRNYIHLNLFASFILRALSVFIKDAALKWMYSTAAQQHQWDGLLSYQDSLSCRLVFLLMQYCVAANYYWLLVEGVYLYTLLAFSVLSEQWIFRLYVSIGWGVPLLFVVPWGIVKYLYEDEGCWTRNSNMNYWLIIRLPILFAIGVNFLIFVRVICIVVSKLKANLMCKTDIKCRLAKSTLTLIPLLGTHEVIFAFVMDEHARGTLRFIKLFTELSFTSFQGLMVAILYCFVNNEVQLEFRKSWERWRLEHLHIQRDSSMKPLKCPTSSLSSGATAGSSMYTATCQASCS", "test": "Peptide-receptor mediated cAMP accumulation (LANCE Ultra cAMP) in CHO-K1 cells transfected with human GLP-1R", "assay_type": "cell-based"}, "[5]": {"test": "Body weight change in DIO Long Evans rats after 13 days continuous dosing by osmotic pump", "details": "for weight loss compared to vehicle control after 13 days: DIO LE rats, single agent; for ED50 of weight loss: DIO rats", "method": "Rats were 15-17 weeks old at the start of the study. The rats were housed 1 per cage and given ad libitum access to high fat diet (Harlan TD.95217, 4.3 kcal/g) and water, maintained on a 12 hr light/dark cycle from 5:00 AM to 5:00 PM at 21° C. and 50% relative humidity and allowed to acclimate for at least 10 days prior to the surgeries. Baseline fat mass and non-fat mass measurements were taken 3 days before the start of peptide infusion using a QMR instrument (Echo Medical Systems, Houston, TX). Body weight measurements were taken 2 times/week starting three days before the surgery. Rats were randomized according to their percent body fat mass and/or body weight into the various treatment groups (n=4-6 rats/group). […] On the day of surgery, rats were anesthetized under isoflurane and the dorsal skin surface was shaved and cleansed. Rats were injected SC with Flunexin (2.5 mg/kg). A 1-2 cm surgical incision was made between the scapulae. Using blunt dissection, a 2-3 cm subcutaneous tunnel was created into which the sterile, filled, mini-osmotic pump was introduced. The skin opening was closed with a skin staple. Each rat was implanted with either one or two osmotic pumps containing vehicle or peptide according to their treatment group. All the data are presented as mean±SEM. The data were analyzed in Excel and/or Prism (GraphPad Software, Inc., La Jolla, CA) using one-way ANOVA to compare each group to the appropriate control group."}, "[6]": {"test": "Solubility in water or saline at room temperature, visual inspection", "assay_type": "physicochemical", "from_the_text": "Samples were visually inspected for clarity of the sample, any appearance of turbidity or haziness."}, "[7]": {"test": "3-hour subcutaneous infusion pharmacokinetics", "details": "male, rat, in vivo", "method": "Peptides were formulated in sterile saline and administered as a 3-hour subcutaneous infusion to non-fasted male Wistar Han or Sprague-Dawley rats (n=3 per group) at a final dose of 0.3 or 0.1 mg/kg via a cannula placed into the subcutaneous space between the scapulae. […] Plasma was prepared by centrifugation and stored at −80° C. until analysis.\n(§1) Protein Precipitation: All 96-well plates were coated with a blocking agent to mitigate non-specific binding of peptides. Plasma samples (75 uL) were added to a 96-well plate containing 200 uL of 2:1 ethanol:acetonitrile containing 0.1% TFA and mixed well via aspiration. Plates were capped, vortex-mixed and centrifuged. Supernatants (215 uL) were transferred to a clean 96-well plate, evaporated to dryness under nitrogen flow and then reconstituted in 75 μL of 20% acetonitrile in water containing 0.10% formic acid.\nSolid-Phase Extraction: Samples were diluted 3-fold with 5% NH4OH (aq) and loaded onto an Oasis MAX microElution plate (Waters Corp, Milford, MA) that had been pre-conditioned with 200 uL each of methanol and 5% NH4OH (aq). The plate was washed with 200 uL 5% NH4OH (aq), followed by 200 uL 20% acetonitrile in water. […]\nAll calibration standards were prepared in control rat plasma containing K2EDTA and protease inhibitor cocktail. […] Peptides were quantified my monitoring one or more product ions produced from a multiply charged parent ion."}, "[8]": {"test": "3-hour intravenous infusion pharmacokinetics, peptide clearance (CL)", "details": "male, rat, in vivo", "method": "Peptides were formulated in sterile saline and administered as a 3-hour intravenous infusion to non-fasted male Wistar Han or Sprague-Dawley rats (n=3 per group) via jugular vein cannula at a final dose of 0.3 or 0.1 mg/kg. […] Plasma was prepared by centrifugation and stored at −80° C. until analysis.\nas §1\nSolid-Phase Extraction: Samples were diluted 3-fold with 5% NH4OH (aq) and loaded onto an Oasis MAX microElution plate (Waters Corp, Milford, MA) that had been pre-conditioned with 200 uL each of methanol and 5% NH4OH (aq). The plate was washed with 200 uL 5% NH4OH (aq), followed by 200 uL 20% acetonitrile in water. […] Samples were reconstituted in 80 uL 0.1% formic acid in water.\nAll calibration standards were prepared in control rat plasma containing K2EDTA and protease inhibitor cocktail. […] Samples were injected onto a 2.1×50 mm reverse phase C18 analytical column, typically a Waters ACQUITY UPLC™ HSS T3, 1.8 μm (Waters Corporation, Milford, MA) or similar. […] Typical flow rates were 600 L/min. The column temperature was held constant at 40 or 45° C. Peptides were quantified my monitoring one or more product ions produced from a multiply charged parent ion."}, "[9]": {"test": "Steady state plasma concentrations of glucagon analogs given subcutaneously by osmotic minipump", "assay_type": "in vivo, rat"}},
  "note": "“Also recorded” adds a separate entry of the source. Where a SMILES comes first, the peptide text is derived from it. [ ]: non-standard residue; d: D form. Aib = CC(C)(N)C(=O)O",
  "data": [
    {"smiles": "CC(C)C[C@H](NC(=O)[C@H](Cc1ccc(O)cc1)NC(=O)[C@H](CCCCN)NC(=O)[C@H](CO)NC(=O)[C@H](Cc1ccc(O)cc1)NC(=O)[C@H](CC(=O)O)NC(=O)[C@H](CO)NC(=O)[C@@H](NC(=O)[C@H](Cc1ccccc1)NC(=O)[C@@H](NC(=O)CNC(=O)[C@H](Cc1c[nH]cn1)NC(=O)[C@H](CO)NC(=O)[C@@H](N)Cc1ccc(O)cc1)[C@@H](C)O)[C@@H](C)O)C(=O)N[C@@H](CC(=O)O)C(=O)NC(C)(C)C(=O)N[C@@H](CCCCN)C(=O)N[C@@H](Cc1ccc(O)cc1)C(=O)N[C@@H](C)C(=O)N[C@@H](CCC(N)=O)C(=O)N[C@@H](CCC(=O)O)C(=O)N[C@@H](Cc1ccccc1)C(=O)N[C@H](C(=O)NC(C)(C)C(=O)N[C@@H](Cc1c[nH]c2ccccc12)C(=O)N[C@@H](CC(C)C)C(=O)N[C@@H](CCC(=O)O)C(=O)N[C@@H](CC(=O)O)C(=O)N[C@@H](CCC(=O)O)C(=O)N1CCC[C@H]1C(=O)N[C@@H](CO)C(=O)N[C@@H](CO)C(=O)NCC(=O)N[C@@H](C)C(=O)N1CCC[C@H]1C(=O)N1CCC[C@H]1C(=O)N1CCC[C@H]1C(=O)N[C@@H](CO)C(=O)O)C(C)C", "note": "[Compound A1] (H-YSHGTFTSDYSKYLD[Aib]KYAQEFV[Aib]WLEDEPSSGAPPPS-OH; N-terminus assumed)", "values": [
      {"measurement": "clearance", "setting": "[1]; read-out: CL (IV/SubQ)", "result": 11.5, "unit": "mL/min/kg"},
      {"measurement": "half-life", "setting": "[1]; read-out: T ½ (converted)", "result": 49.8, "unit": "min"},
      {"measurement": "clearance compared with exenatide and glucagon", "setting": "[2]; FIG. 7", "result": "less than that of exenatide and glucagon"},
      {"measurement": "mode of clearance", "setting": "[2]; FIG. 7, Table 5 values close to GFR", "result": "cleared from plasma via glomerular filtration"},
      {"measurement": "clearance", "setting": "[2]; Rat PK Cl, Table 6, unit inferred", "result": 11.5, "unit": "mL/min/kg"},
      {"measurement": "clearance", "setting": "[2]; iv, CL mL/min/kg, Table 5, intravenous infusion rate 10 mcg/kg/hr", "result": 10.6, "unit": "mL/min/kg"},
      {"measurement": "EC50", "setting": "human GCGR", "result": 0.0251, "unit": "nM"},
      {"measurement": "activation profile at the human glucagon receptor (GCGR)", "setting": "human GCGR; FIG. 1A", "result": "nearly equipotent on GCGR"},
      {"measurement": "Stability 1 mg/ml in water at 37 degC", "setting": "[3]; Table 3, % printed only in cells of A1-A6", "result": ">71", "unit": "%"},
      {"measurement": "Physiochemical Properties Stability", "setting": "[3]; Table 6", "result": ">95", "unit": "%"},
      {"measurement": "interaction of the combination with exenatide on weight loss", "setting": "[4]; 27 days, Compound A1 24 and 50 mcg/kg/day with exenatide 10 mcg/kg/day", "result": "supra-additive (synergistic) effect"},
      {"measurement": "maximal weight loss response, combination with exenatide", "setting": "[4]; 27 days, Compound A1 with exenatide 10 mcg/kg/day", "result": "~47", "unit": "%"},
      {"measurement": "increase in body weight over 27 days", "setting": "[4]; DIO rats, Compound A1 alone 7.5 mcg/kg/day", "result": "~4", "unit": "%"},
      {"measurement": "increase in body weight over 27 days", "setting": "[4]; DIO rats, Compound A1 alone 24 mcg/kg/day", "result": "~4", "unit": "%"},
      {"measurement": "decrease in body weight over 27 days", "setting": "[4]; DIO rats, Compound A1 alone, highest infusion rate (50 mcg/kg/day)", "result": 16.8, "unit": "%"},
      {"measurement": "EC50", "setting": "hGIPR", "result": "> 10", "unit": "µM"},
      {"measurement": "activation profile at the human GLP-1 receptor (GLP-1R)", "setting": "human GLP-1R; FIG. 1B", "result": "inactive on GLP-1R"},
      {"measurement": "EC50", "setting": "human GLP-1R; GLP-1R pEC50, Table 7, GLP-1R", "result": "> 1", "unit": "µM"},
      {"measurement": "EC50", "setting": "human GLP-1R; Human in vitro Potency (pEC50) hGLP-1R, Table 6", "result": 6.31, "unit": "µM"},
      {"measurement": "EC50", "setting": "human GLP-1R; hGLP1 pEC50 (cAMP mean (n = 3): 11 point curve starting at 1 nM, Table 3)", "result": 6.31, "unit": "µM"},
      {"measurement": "EC50", "setting": "human GLP-1R; hGLP1 pEC50 (cAMP) mean (n = 9): 11 point curve starting at 500 uM, Table 2A", "result": 6.31, "unit": "µM"},
      {"measurement": "weight loss compared to vehicle control after 13 days", "setting": "[5]; 0.01 mg/kg/day", "result": 5.6, "unit": "%"},
      {"measurement": "weight loss compared to vehicle control after 13 days", "setting": "[5]; 0.03 mg/kg/day", "result": 3.5, "unit": "%"},
      {"measurement": "weight loss compared to vehicle control after 13 days", "setting": "[5]; 0.1 mg/kg/day", "result": 10, "unit": "%"},
      {"measurement": "weight loss compared to vehicle control after 13 days", "setting": "[5]; 0.3 mg/kg/day", "result": 22.6, "unit": "%"},
      {"measurement": "ED50 of weight loss", "setting": "[5]; 13 days infusion, fits sharing vehicle response and common maximum (FIG. 9)", "result": 51, "unit": "µg/kg/day"},
      {"measurement": "ED50 of weight loss", "setting": "[5]; 13 days sc minipump, 4-parameter sigmoid fit of each agent (FIG. 8; Table 6 prints no unit)", "result": 65.7, "unit": "µg/kg/day"},
      {"measurement": "% Weight loss Single", "setting": "[5]; Table 6, rat in vivo", "result": 26, "unit": "%"},
      {"measurement": "in vivo potency compared with exenatide", "setting": "[5]; administered alone", "result": "almost as potent in vivo as exenatide"},
      {"measurement": "maximal weight loss relative to exenatide", "setting": "[5]; greater, administered alone", "result": 2.3, "unit": "fold"},
      {"measurement": "common maximal weight loss response", "setting": "[5]; over 13 days, fits constrained to share it (FIG. 9)", "result": 27.2, "unit": "%"},
      {"measurement": "solubility", "setting": "[6]; Table 3, room temperature, read-out: Solubility in water", "result": "> 200", "unit": "mg/mL"},
      {"measurement": "Physiochemical Properties Solubility", "setting": "[6]; Table 6, unit not given", "result": ">200"},
      {"measurement": "bioavailability", "setting": "[7]", "result": 74, "unit": "%"},
      {"measurement": "clearance", "setting": "[8]", "result": 11.5, "unit": "mL/min/kg"},
      {"measurement": "mode of clearance", "setting": "[9]; FIG. 6, steady state plasma concentration vs inulin/GFR", "result": "consistent with being via glomerular filtration; also recorded: cleared mainly by glomerular filtration"},
      {"measurement": "subcutaneous bioavailability", "setting": "[9]; sc osmotic minipump, rat", "result": "high"}
    ]}
  ]
}
